# Source: US20250326748A1, “COMPOUNDS AND METHODS FOR MODULATING SPLICING” (REMIX THERAPEUTICS INC., priority 2022, published 2025)
# Structures can show the parent of a compound that is named as a salt. Where two headings read alike, the source gives them in different places.
# Tests used:
# Assay type in all cases: cell-based, human
# HiBiT-tagged HTT protein = assay: HiBiT protein abundance assay, HTT (K562 HiBiT knock-in); conditions: HiBiT knock-in cells, 24 hours
# Method: (§1) Compounds described herein were used to screen for effects on quantitative protein abundance using a HiBit assay system (Promega). Quantitative protein abundance was determined by measuring the protein levels of HiBit-tagged protein targets expressed in cell culture via luminescence using the Nano-Glo HiBiT Lytic Detection System, which uses a split complementation assay format to reconstitute NanoBiT enzyme to generate a luminescent signal. A protein abundance assay was developed such that endogenous protein targets could be modified with the HiBiT peptide tag and their abundance could be assessed after compound treatment. Briefly, K562 cell lines containing a HiBiT-modification were treated with various compounds described herein (e.g., compounds of Formulas (I), or (II)). After treatment for 24 hours, the protein abundance of a specific target was determined by measuring luminescence.
# (§2) • Promega Nano-Glo HiBiT Lytic Detection System (cat #N3030) • Corning 384-well TC-treated microplates (cat #3570)
# (§3) Cells were maintained in IMDM with 10% FBS. Before the assay, cells were diluted with […] growth media (IMDM+1% FBS media) and were seeded in a 384-well plate at a density of 10000 cells/well (for each cell line listed in Table 6). Each compound was prepared as a 10-point 3-old serial dilution in DMSO with the top dose at a final concentration of 10 μM in the well. Unmodified K562 cells were added at the previously specified density with DMSO to serve as an assay baseline and positive control (PC) and DMSO only with the respective modified cell lines was added to the negative control (NC) columns. Final DMSO concentration was kept at or below 0.25%. Treated cell plates were placed in an incubator at 37° C. with 5% CO2 for 24 hours. After 24 hours, 25 μL of Complete HiBit Lytic reagent was added to each well at room temperature (e.g. one plate requiring 10 ml Lytic Buffer, 100 μL LgBiT Protein, 200 μL Lytic Substrate), shaken for 5 minutes at 600 RPM, then left to sit for 10 minutes for signal to stabilize before reading on a Spark Cyto plate reader (Tecan) with a 500 ms measurement time.
# (§4) To determine compound effects on protein abundance of each target in Table 6, the percent response for each respective cell line was calculated at each compound concentration as follows:
# (§5) For the normalized response at each concentration, a four-parameter logistical regression was fit to the data and the response was interpolated at the 50% value to determine a concentration for protein abundance at 50% (IC50) the untreated control.
# HTT mRNA = assay: Splicing RT-qPCR assay, HTT canonical (CJ) and alternative (AJ) junction mRNA; conditions: Homo sapiens; for IC50: canonical junction mRNA; for AC50: alternative junction mRNA, read-out: HTT AJ (AC50, increase in AJ mRNA)
# Summary of the method: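 Cmpd 24 h, 37 °C/5% CO2; 11-pt 3x serial dilution from 10 uM final; DMSO max 0.25%. Cells: A673 (DMEM/10% FBS, pre-adhered 24 h) or K562 (IMDM/10% FBS). Lyse, DNase I, then 1-step RT-qPCR for CJ and AJ; housekeeping-normalized.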
# HiBiT-tagged MYB protein = assay: HiBiT protein abundance assay, MYB (K562 HiBiT knock-in); conditions: HiBiT knock-in cells, 24 hours
# Method: as §1, §2, §3, §4, §5
# [1] = 24 h, RT-qPCR, A673 or K562 cells, 24 hours treatment, read-out: HTT CJ (IC50, decrease in CJ mRNA)
# [2] = qPCR panel, read-out: HTT CJ (decrease in CJ mRNA levels, IC50)
# [3] = RT-qPCR, A673 or K562 cells, 24 hours treatment
Structure (SMILES),IC50 (HiBiT-tagged HTT protein),IC50 (HTT mRNA; [1]),IC50 (HTT mRNA; [2]),AC50 (HTT mRNA; [3]),IC50 (HiBiT-tagged MYB protein)
"CN[C@H]1CN(c2cnc3nc(-c4cc5cn(C)nc5c(C)c4O)ccc3c2)C[C@H]1F [Compound 129, 5-{6-[(3R,4S)-3-fluoro-4-(methylamino)pyrrolidin-1-yl]-1,8-naphthyridin-2-yl}-2,7-dimethylindazol-6-ol]",0.1 to 1 µM,0.1 to 1 µM,0.1 to 1 µM,0.1 to 1 µM,0.1 to 1 µM
Cc1c(O)c(-c2cc(Cl)c3cc(N4C[C@@H](C)N[C@@H](C)C4)cnc3n2)cc2cn(C)nc12 [Compound 149],0.1 to 1 µM,0.1 to 1 µM,0.1 to 1 µM,0.1 to 1 µM,< 0.1 µM
"Cc1c(O)c(-c2cc(C3CC3)c3cc(N4CCNCC4)cnc3n2)cc2cn(C)nc12 [Compound 144, 5-(4-cyclopropyl-6-(piperazin-1-yl)-1,8-naphthyridin-2-yl)-2,7-dimethyl-2H-indazol-6-ol bis(2,2,2-trifluoroacetate)]",0.1 to 1 µM,0.1 to 1 µM,0.1 to 1 µM,0.1 to 1 µM,< 0.1 µM
"Cc1cn2nc(-c3cc(Cl)c4cc(N5C[C@@H](C)N[C@@H](C)C5)cnc4n3)cc(C)c2n1 [Compound 335, 4-chloro-2-{2,8-dimethylimidazo[1,2-b]478pyridazine-6-yl}-6-[(3R,5S)-3,5-dimethylpiperazin-1-yl]-1,8-naphthyridine]",0.1 to 1 µM,0.1 to 1 µM,0.1 to 1 µM,1 to 10 µM,0.1 to 1 µM
"CN[C@@H]1CN(c2cnc3nc(-c4cc5cn(C)nc5c(C)c4O)ccc3c2)C[C@H]1F (single isomer, unassigned) [Compound 130]",0.1 to 1 µM,0.1 to 1 µM,0.1 to 1 µM,0.1 to 1 µM,0.1 to 1 µM
CN[C@@H]1CCN(c2cnc3nc(-c4cc5cn(C)nc5c(C)c4O)ccc3c2)C1 [Compound 112],0.1 to 1 µM,< 0.1 µM,< 0.1 µM,< 0.1 µM,< 0.1 µM
CCN[C@@H]1CCN(c2cnc3nc(-c4cc5cn(C)nc5c(C)c4O)ccc3c2)C1 [Compound 124],< 0.1 µM,< 0.1 µM,< 0.1 µM,< 0.1 µM,< 0.1 µM
"CN[C@@H]1CCN(c2cnc3nc(-c4cc5cn(C)nc5c(C)c4O)cc(Cl)c3c2)C1 [Compound 286, 5-{4-chloro-6-[(3R)-3-(methylamino)pyrrolidin-1-yl]-1,8-naphthyridin-2-yl}-2,7-dimethylindazol-6-ol hydrochloride]",< 0.1 µM,< 0.1 µM,< 0.1 µM,< 0.1 µM,< 0.1 µM
CN[C@@H]1CCN(c2cnc3nc(-c4cc(C)c5nc(C)cn5n4)cc(Cl)c3c2)C1 [Compound 341],< 0.1 µM,< 0.1 µM,< 0.1 µM,< 0.1 µM,< 0.1 µM
"CN[C@H]1CN(c2cnc3nc(-c4cc5cn(C)nc5c(C)c4O)ccc3c2)C[C@H]1C [Compound 125, 2,7-dimethyl-5-{6-[(3R,4R)-3-methyl-4-(methylamino)379pyrrolidine-1-yl]-1,8-naphthyridin-2-yl}indazol-6-ol]",< 0.1 µM,0.1 to 1 µM,0.1 to 1 µM,0.1 to 1 µM,< 0.1 µM
CN[C@@H]1CN(c2cnc3nc(-c4cc5cn(C)nc5c(C)c4O)ccc3c2)C[C@@H]1C [Compound 128],0.1 to 1 µM,0.1 to 1 µM,0.1 to 1 µM,0.1 to 1 µM,< 0.1 µM
Cc1cn2nc(-c3cc(Cl)c4cc(N5CCC(N(C)C)CC5)cnc4n3)cc(C)c2n1 [Compound 348],0.1 to 1 µM,0.1 to 1 µM,0.1 to 1 µM,0.1 to 1 µM,< 0.1 µM
CN[C@H]1CCN(c2cnc3nc(-c4cc5cn(C)nc5c(F)c4O)cc(Cl)c3c2)C1 [Compound 272],< 0.1 µM,< 0.1 µM,< 0.1 µM,< 0.1 µM,< 0.1 µM
CN[C@@H]1CCN(c2cnc3nc(-c4cc(C)c5nc(C)cn5n4)ccc3c2)C1 [Compound 117],0.1 to 1 µM,1 to 10 µM,1 to 10 µM,0.1 to 1 µM,< 0.1 µM
CCN[C@H]1CCN(c2cnc3nc(-c4cc5cn(C)nc5c(C)c4O)ccc3c2)C1 [Compound 123],< 0.1 µM,0.1 to 1 µM,0.1 to 1 µM,0.1 to 1 µM,< 0.1 µM
"Cc1c(O)c(-c2ccc3cc(N4CCC(N(C)C)CC4)cnc3n2)cc2cn(C)nc12 [Compound 138, 5-{6-[4-(dimethylamino)piperidin-1-yl]-1,8-naphthyridin-2-yl}-2,7-dimethylindazol-6-ol]",0.1 to 1 µM,0.1 to 1 µM,0.1 to 1 µM,1 to 10 µM,< 0.1 µM
"CCN[C@@H]1CCN(c2cnc3nc(-c4cc5cn(C)nc5cc4O)ccc3c2)C1 [Compound 310, 5-{6-[(3R)-3-(ethylamino)468pyrrolidine-1-yl]-1,8-naphthyridin-2-yl}-2-methylindazol-6-ol hydrochloride]",0.1 to 1 µM,< 0.1 µM,< 0.1 µM,0.1 to 1 µM,< 0.1 µM
"Cc1c(O)c(-c2ccc3cc(N4CCNCC4)cnc3n2)cc2cn(C)nc12 [Compound 137, 2,7-dimethyl-5-[6-(piperazin-1-yl)-1,8-naphthyridin-2-yl]indazol-6-ol]",0.1 to 1 µM,0.1 to 1 µM,0.1 to 1 µM,0.1 to 1 µM,< 0.1 µM
C[C@@H]1CN(c2cnc3nc(-c4cc5cn(C)nc5c(F)c4O)cc(Cl)c3c2)C[C@H](C)N1 [Compound 279],0.1 to 1 µM,0.1 to 1 µM,0.1 to 1 µM,0.1 to 1 µM,< 0.1 µM
"CN[C@@H]1CCN(c2cnc3nc(-c4cc5cn(C)nc5c(C)c4O)ncc3c2)C1 [Compound 107, 2,7-dimethyl-5-{6-[(3R)-3-(methylamino)pyrrolidin-1-yl]pyrido[2,3-d]pyrimidin-2-yl}indazol-6-ol hydrochloride]",< 0.1 µM,< 0.1 µM,< 0.1 µM,< 0.1 µM,< 0.1 µM
"CN[C@H]1CN(c2cnc3nc(-c4cc5cn(C)nc5c(C)c4O)ccc3c2)C[C@@H]1C [Compound 127, 2,7-dimethyl-5-{6-[(3S,4R)-3-methyl-4-(methylamino)384pyrrolidine-1-yl]-1,8-naphthyridin-2-yl}indazol-6-ol]",< 0.1 µM,0.1 to 1 µM,0.1 to 1 µM,0.1 to 1 µM,< 0.1 µM
CN[C@H]1CCN(c2cnc3nc(-c4cc(C)c5nc(C)cn5n4)ccc3c2)C1 [Compound 116],< 0.1 µM,< 0.1 µM,< 0.1 µM,< 0.1 µM,< 0.1 µM
"CCNC1CCN(c2cnc3nc(-c4cc5cn(C)nc5c(C)c4O)ccc3c2)C1 (stereo not drawn) [Compound 122, 5-{6-[3-(ethylamino)pyrrolidin-1-yl]-1,8-naphthyridin-2-yl}-2,7-dimethylindazol-6-ol]",< 0.1 µM,< 0.1 µM,< 0.1 µM,< 0.1 µM,< 0.1 µM
Cc1c(O)c(-c2cc(Cl)c3cc(N(C)[C@@H]4CCNC4)cnc3n2)cc2cn(C)nc12.Cl [Compound 293],0.1 to 1 µM,0.1 to 1 µM,0.1 to 1 µM,0.1 to 1 µM,0.1 to 1 µM
CN[C@H]1CCN(c2cnc3nc(-c4cc5cn(C)nc5c(C)c4O)cc(Cl)c3c2)C1.Cl [Compound 287],< 0.1 µM,< 0.1 µM,< 0.1 µM,0.1 to 1 µM,< 0.1 µM
Cn1cc2cc(-c3ccc4cc(NC5CCNCC5)cnc4n3)c(O)c(F)c2n1 [Compound 285],0.1 to 1 µM,0.1 to 1 µM,0.1 to 1 µM,0.1 to 1 µM,0.1 to 1 µM
CCN[C@@H]1CCN(c2cnc3nc(-c4cc5cn(C)nc5cc4O)cc(Cl)c3c2)C1 [Compound 317],< 0.1 µM,< 0.1 µM,< 0.1 µM,< 0.1 µM,< 0.1 µM
